Some test systems named below: SNB-75 CNS; MALME-3M melanoma; SK-MEL-2 melanoma; HCC-2998 colon; SF-295 CNS; UACC-62 melanoma; HT29 colon; MCF7 breast; RPMI-8226 leukemia; HCT-15 colon.
Test in all cases: NCI-60 cell line screen, 48 h

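Cells were grown in 96-well plates and exposed to each compound for 48 hours at five concentrations; endpoints were interpolated linearly between bracketing concentrations, or set to the highest concentration if not reached. GI50 = concentration required for 50% inhibition of growth. TGI: concentration producing complete growth inhibition.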

Turning to `O=C(CN1C(=O)S/C(=C\C(Cl)=C\c2ccccc2)C1=O)NCCc1ccc(O)cc1`, the GI50 with SNB-75 CNS is 1.05 µM; in the assay on MALME-3M melanoma, 2.03 µM; in the assay with SK-MEL-2 melanoma, 2.64 µM; in the assay with HCC-2998 colon, 1.85 µM; with SF-295 CNS it was 2.1 µM; in the assay with UACC-62 melanoma, 1.7 µM. Moreover, the GI50 with HT29 colon was 3.02 µM; in the assay with MCF7 breast, 1.79 µM; in the assay on RPMI-8226 leukemia, 1.74 µM; in the assay on HCT-15 colon, 1.52 µM. Also, the TGI in the assay on SNB-75 CNS was found to be 6.64 µM; in the assay on MALME-3M melanoma, 5.96 µM; in the assay with SK-MEL-2 melanoma, 7.74 µM; in the assay with HCC-2998 colon it was 3.33 µM; in the assay on SF-295 CNS, 4.29 µM; in the assay on UACC-62 melanoma, 3.96 µM. In addition, the TGI worked out at 12.3 µM in the assay on HT29 colon, 11.5 µM in the assay on MCF7 breast, 6.96 µM in the assay on RPMI-8226 leukemia and 4.56 µM in the assay on HCT-15 colon.
`NC1=CC(=O)c2nc3ccccc3c3ccnc1c23`: the GI50 with SNB-75 CNS is 0.552 µM; in the assay with MALME-3M melanoma, 0.0856 µM; in the assay on SK-MEL-2 melanoma, 9.45 µM; in the assay with HCC-2998 colon, 0.497 µM; in the assay with SF-295 CNS, 0.19 µM; in the assay on UACC-62 melanoma, 2.38 µM. Also, the GI50 is 3.52 µM in the assay on HT29 colon, 1.29 µM with MCF7 breast, 5.18 µM in the assay on RPMI-8226 leukemia and 0.622 µM in the assay with HCT-15 colon. The TGI is 23.5 µM in the assay with SNB-75 CNS; 0.556 µM with MALME-3M melanoma; 32.1 µM with SK-MEL-2 melanoma; 11.5 µM with HCC-2998 colon; above 39.5 µM with SF-295 CNS; 17.2 µM in the assay with UACC-62 melanoma. Further, the TGI was 21.2 µM in the assay with HT29 colon, above 100 µM with MCF7 breast, above 100 µM in the assay on RPMI-8226 leukemia and above 100 µM in the assay with HCT-15 colon.
As to `CC(C(=O)O)/C(=C\c1ccc2c(c1)OCO2)C(=O)O` (stereo not given), the TGI in the assay on SNB-75 CNS, with MALME-3M melanoma, in the assay with SK-MEL-2 melanoma, in the assay on HCC-2998 colon, with SF-295 CNS and in the assay with UACC-62 melanoma was above 100 µM throughout. Moreover, the TGI is above 82.2 µM in the assay with HT29 colon, above 100 µM in the assay on MCF7 breast, above 100 µM with RPMI-8226 leukemia and above 100 µM in the assay on HCT-15 colon.
As to `Cn1ccnc1C(=O)/C=C/c1ccc(CC(=O)Nc2ccc(F)cc2)cc1`, the GI50 with SNB-75 CNS is 3.74 µM; in the assay on MALME-3M melanoma, 5.28 µM; in the assay with SK-MEL-2 melanoma, 7.01 µM; in the assay on HCC-2998 colon, 3.78 µM; in the assay on SF-295 CNS it was 4.55 µM; with UACC-62 melanoma, 3.51 µM. Besides, the GI50 with HT29 colon was 2.27 µM; in the assay on MCF7 breast, 1.04 µM; in the assay with RPMI-8226 leukemia, 1.02 µM; in the assay on HCT-15 colon, 1.29 µM. Moreover, the TGI in the assay with SNB-75 CNS was above 25 µM; with MALME-3M melanoma it was 14.9 µM; in the assay on SK-MEL-2 melanoma, 23.7 µM; in the assay on HCC-2998 colon, 7.95 µM; with SF-295 CNS, 19.1 µM; with UACC-62 melanoma, 7.75 µM. Besides, the TGI in the assay on HT29 colon was 8.21 µM; in the assay with MCF7 breast, 8.59 µM; with RPMI-8226 leukemia, 5.44 µM; in the assay on HCT-15 colon, 9.26 µM.

These data come from PubChem BioAssay (NCI).
